{
  "source": "patent US11344601B2",
  "about": "“Tumor microenvironment-related target TAK1 and application thereof in inhibition of tumor” (Shanghai Institutes for Biological Sciences, Chinese …, priority 2017, dated 2022)",
  "tested_on": "SASP effectors",
  "experiment": "Genome-wide expression microarray of SASP effectors in PSC27 cells",
  "format": "cell-based, human",
  "settings": "bleomycin in combination with 5Z-7 vs bleomycin alone",
  "experimental": "FIG. 34. After simultaneous treatment of PSC27 cells with bleomycin and/or 5Z-7, SB203580 (SB) and RAD001, total RNA was analyzed by microarray for expression-spectrum.\nc. Experimental Treatment In Vitro • 100 nM docetaxel (DTX), 100 nM paclitaxel (PTX), 200 nM vincristine (VCR), 50 μg/ml bleomycin (BLEO), 1 μM mitoxantrone (MIT), or 10 Gy ^137CS ionizating radiation (γ-radiation at 743 rad/min, RAD) was added to the culture medium when PSC27 cells grown to 80% (PSC27-Pre) to produce cell damage. After drug treatment for 6 hours, the cells were simply washed by PBS for 3 times and kept in the culture medium for 7 to 10 days, followed by subsequent experiments. 2. Plasmid Preparation and Lentiviral Transfection • Full-length human IKKα and Flag were cloned as a fusion protein between the restriction sites BamHI and XbaI in the expression vector pCR3.1. Full-length human mTOR and GST were cloned as a fusion protein between a pair of NotI restriction sites in the expression vector pcDNA3. […] FV1000 laser scanning confocal microscopy (Olympus) was used to obtain cellular confocal fluorescence images to determine the extent of DNA damage. • Antibody anti-TAK1 used for histological IHC staining in clinical prostate, non-small cell lung cancer patients and breast cancer patients, was purchased from Proteintech, idib. […]",
  "data": [
    {"compound": "COc1cc(O)c2c(c1)/C=C/C[C@H](O)[C@H](O)C(=O)/C=C\\C[C@H](C)OC2=O", "note": "[5Z-7, 5z-7-oxozeaenol]", "values": [
      {"measurement": "expression of SASP effectors", "value": "significantly inhibited"}
    ]}
  ]
}
